Where “and” joins values, the source holds several entries; their conditions need not be identical. Identical values can stand only once.
Experiment: Pharmacokinetics in humans, MRTX1133 formulation, oral, single and multiple doses
Type: in vivo
Conditions: for AUCExtrap, Geo Mean: geometric mean of subjects
Protocol: The pharmacokinetics [PK] of the MRTX1133 formulation after oral administration has been evaluated in 25 subjects across 3 escalating dose frequencies under fasting conditions (200 mg twice daily [BID], 400 mg BID, and 800 mg BID), as well as evaluation of 400 mg BID when administered with a low-fat meal (i.e., under fed conditions). The mean (+standard deviation) single-dose and multiple-dose pharmacokinetic profiles of the evaluated doses are presented in FIG. 9 and FIG. 10, respectively. Individual single- and multiple-dose PK profiles can be found in FIG. 11. For all figures, the X-axis represents nominal time of sample collection (hours [h]) and the Y-axis represents plasma concentration (ng/mL). Table 10 lists PK data following the oral administration of a single dose and multiple doses of MRTX1133 formulation by dose level and subject.

[1] = multiple oral doses of 800 mg BID, fasted, individual subjects 1-8
[2] = single oral dose of 200 mg, fasted, individual subjects
[3] = single oral dose of 400 mg with a low-fat meal, individual subjects
[4] = single oral dose of 400 mg, fasted, individual subjects
[5] = single oral dose of 800 mg, fasted, individual subjects 1-8

Tlast [1]: 12 h (7×) and 8 h
Tmax [1]: 6.0 h and 0.5 h (3×)
Plasma concentration (single oral dose of 200 mg, fasted, 0 h, individual subjects): BQL
Plasma concentration (single oral dose of 200 mg, fasted, 0.5 h, individual subjects): BQL
Plasma concentration (single oral dose of 200 mg, fasted, 48 h, individual subjects): BQL
Plasma concentration (single oral dose of 200 mg, fasted, 72 h, individual subjects): BQL
Plasma concentration (single oral dose of 200 mg, fasted, 96 h, individual subjects): BQL
AUCExtrap, Geo Mean (single oral dose of 200 mg, fasted): 7.4%
Tlast [2]: 24 h and 12 h (3×) and 12^a h
Plasma concentration (single oral dose of 400 mg with a low-fat meal, 0 h, individual subjects): BQL
Plasma concentration (single oral dose of 400 mg with a low-fat meal, 12 h, individual subjects): BQL
AUCExtrap, Geo Mean (single oral dose of 400 mg with a low-fat meal): 6.3%
Tlast [3]: 12 h (3×) and 8 h and 96 h
Tmax [3]: 5.0 h
Plasma concentration (single oral dose of 400 mg, fasted, 0 h, individual subjects): BQL
Plasma concentration (single oral dose of 400 mg, fasted, 0.5 h, individual subjects): BQL
AUCExtrap, Geo Mean (single oral dose of 400 mg, fasted): 7.6%
Tlast [4]: 96 h and 12 h (6×)
Tmax [4]: 0.5 h
Plasma concentration (single oral dose of 800 mg, fasted, 0 h, individual subjects): BQL
Plasma concentration (single oral dose of 800 mg, fasted, 48 h, individual subject): BQL
Plasma concentration (single oral dose of 800 mg, fasted, 72 h, individual subject): BQL
Plasma concentration (single oral dose of 800 mg, fasted, 96 h, individual subject): BQL
AUCExtrap (single oral dose of 800 mg, fasted, Geo Mean of subjects): 5.6%
Tlast [5]: 24 h (2×) and 12 h (6×)
Tmax [5]: 0.5 h and 12 h
Structure (SMILES): C#Cc1c(F)ccc2cc(O)cc(-c3ncc4c(N5C[C@H]6CC[C@@H](C5)N6)nc(OC[C@@]56CCCN5C[C@H](F)C6)nc4c3F)c12 [MRTX1133, 4-(4-((1R,5S)-3,8-diazabicyclo[3.2.1]octan-3-yl)-8-fluoro-2-(((2R,7aS)-2-fluorohexahydro-1Hpyrrolizin-7a-yl)methoxy)pyrido[4,3-d]pyrimidin-7-yl)-5-ethynyl-6-fluoronaphthalen-2-ol]
AUC0-12 [1]: 227 ng·h/mL and 509 ng·h/mL and 130 ng·h/mL and 744 ng·h/mL and 248 ng·h/mL and 820 ng·h/mL and 264 ng·h/mL
AUC0-12 Accumulation Ratio [1]: 0.79 and 0.20 and 0.71 and 4.46 and 1.87 and 1.41 and 1.05
AUC0-last [1]: 227 ng · h/mL and 509 ng · h/mL and 130 ng · h/mL and 744 ng · h/mL and 248 ng · h/mL and 820 ng · h/mL and 4,458 ng · h/mL and 264 ng · h/mL
Cmax [1]: 38.2 ng/mL and 241 ng/mL and 34.4 ng/mL and 165 ng/mL and 29.8 ng/mL and 105 ng/mL and 812 ng/mL and 72.6 ng/mL
Cmax Accumulation Ratio [1]: 0.30 and 0.14 and 0.34 and 2.57 and 1.24 and 1.30 and 1.86 and 1.68
Peak to Trough Ratio [1]: 15.0 and 12.5 and 17.1 and 13.8 and 2.81 and 2.88 and 10.4 and 20.0
Plasma concentration (single oral dose of 200 mg, fasted, 1 h, individual subjects): 116 ng/mL and 6.88 ng/mL and 44.6 ng/mL (2×) and 9.39 ng/mL
Plasma concentration (single oral dose of 200 mg, fasted, 1.5 h, individual subjects): 49.8 ng/mL and 3.38 ng/mL and 57.9 ng/mL and 41.4 ng/mL and 42.7 ng/mL
Plasma concentration (single oral dose of 200 mg, fasted, 2 h, individual subjects): 20.4 ng/mL and 4.01 ng/mL and 26.7 ng/mL and 23.5 ng/mL and 122 ng/mL
AUC0-12 [2]: 140 ng·h/mL and 89.2 ng·h/mL and 98.1 ng·h/mL and 99.3 ng·h/mL and 585 ng·h/mL
AUC0-inf [2]: 157 ng · h/mL and 107 ng · h/mL (2×) and 103 ng · h/mL and 653 ng · h/mL
AUC0-last [2]: 152 ng·h/mL and 89.2 ng·h/mL and 98.1 ng·h/mL and 99.3 ng·h/mL and 585 ng·h/mL
AUCExtrap [2]: 3.42% and 16.3% and 4.88% and 7.77% and 10.4%
Cmax [2]: 116 ng/mL and 21.0 ng/mL and 57.9 ng/mL and 44.6 ng/mL and 122 ng/mL
Plasma concentration (single oral dose of 400 mg with a low-fat meal, 1 h, individual subjects): 77.0 ng/mL and 18.7 ng/mL and 28.2 ng/mL and 85.1 ng/mL and 24.7 ng/mL
Plasma concentration (single oral dose of 400 mg with a low-fat meal, 2 h, individual subjects): 83.2 ng/mL and 39.9 ng/mL and 6.47 ng/mL and 76.4 ng/mL and 12.0 ng/mL
Plasma concentration (single oral dose of 400 mg with a low-fat meal, 3 h, individual subjects): 71.5 ng/mL and 3.84 ng/mL and 85.8 ng/mL and 13.6 ng/mL
Plasma concentration (single oral dose of 400 mg with a low-fat meal, 4 h, individual subjects): 65.9 ng/mL and 93.9 ng/mL and 2.43 ng/mL and 99.8 ng/mL and 36.5 ng/mL
Plasma concentration (single oral dose of 400 mg with a low-fat meal, 5 h, individual subjects): 41.4 ng/mL (2×) and 1.41 ng/mL and 163 ng/mL and 22.5 ng/mL
Plasma concentration (single oral dose of 400 mg with a low-fat meal, 6 h, individual subjects): 59.5 ng/mL and 16.9 ng/mL and 1.02 ng/mL and 125 ng/mL and 15.5 ng/mL
AUC0-12 [3]: 564 ng·h/mL and 305 ng·h/mL and 42.6 ng·h/mL and 889 ng·h/mL and 169 ng·h/mL
AUC0-inf [3]: 651 ng · h/mL and 317 ng · h/mL and 43.2 ng · h/mL and 1,351 ng · h/mL and 200 ng · h/mL
AUC0-last [3]: 564 ng · h/mL and 305 ng · h/mL and 42.6 ng · h/mL and 1,307 ng · h/mL and 169 ng · h/mL
AUCExtrap [3]: 13.4% and 3.77% and 3.88% and 3.25% and 15.3%
Cmax [3]: 83.2 ng/mL and 93.9 ng/mL and 28.2 ng/mL and 163 ng/mL and 36.5 ng/mL
AUC0-inf [4]: 636 ng · h/mL and 98.4 ng · h/mL and 137 ng · h/mL and 169 ng · h/mL and 126 ng · h/mL and 1,950 ng · h/mL and 670 ng · h/mL
AUCExtrap [4]: 4.07% and 4.18% and 6.90% and 10.7% and 6.70% and 13.0% and 13.4%
Cmax [4]: 62.1 ng/mL and 62.0 ng/mL and 66.3 ng/mL and 71.0 ng/mL and 37.0 ng/mL and 281 ng/mL and 188 ng/mL
AUC0-12 [5]: 287 ng · h/mL and 2,573 ng · h/mL and 182 ng · h/mL and 167 ng · h/mL and 133 ng · h/mL and 583 ng · h/mL and 3,221 ng · h/mL and 251 ng · h/mL
AUC0-inf [5]: 317 ng · h/mL and 2,665 ng · h/mL and 185 ng · h/mL and 181 ng · h/mL and 141 ng · h/mL and 708 ng · h/mL and 4,902 ng · h/mL
AUC0-last [5]: 315 ng · h/mL and 2,573 ng · h/mL and 182 ng · h/mL and 167 ng · h/mL and 133 ng · h/mL and 583 ng · h/mL and 4,421 ng · h/mL and 251 ng · h/mL
AUCExtrap [5]: 4.05% and 3.44% and 1.58% and 8.08% and 5.77% and 17.7% and 9.81%
Cmax [5]: 129 ng/mL and 1,760 ng/mL and 101 ng/mL and 64.3 ng/mL and 24.0 ng/mL and 80.5 ng/mL and 437 ng/mL and 43.3 ng/mL

Source: US20250120981A1, “MRTX1133 PHARMACEUTICAL COMPOSITIONS” (MIRATI THERAPEUTICS, INC., priority 2023, published 2025)
